1 molecule from patent US12312599B2, “Methods, compositions, and kits for producing beige adipocytes and treating metabolic disorders” (MaineHealth, priority 2018, dated 2025) can be followed below.

The subject of the test is iPSCs. As to the kind of experiment: Mesoderm induction of iPSCs: FOXF1 and IRX3 expression. Conditions: SB added to in-house mesoderm induction medium. It counts as cell-based, human. On the procedure:
PSCs were cultured in monolayer on hESC-qualified Matrigel-coated plates (Corning) and expanded in NutriStem hPSC XF Medium (Stemgent) and passaged with ReLeSR passaging reagent (STEMCELL Technologies). For mesoderm induction (Day 0), PSC colonies was dissociated with TrypLE cell dissociation reagent (Thermofisher) and plated on Matrigel coated plates in NutriStem medium containing 10 μM Y-27632 Rho kinase inhibitor (Calbiochem). The following day (Day 1), NutriStem medium was replaced with STEMdiff Mesoderm Induction Medium (MIM) (STEMCELL Technologies) and changed each day until day 5.
Note: Only use Y-27632 stock solutions that have been resuspended in DMSO. […] Conduct Mesoderm induction of iPSC in a laminar flow cabinet. • 3. Expand cells in NutriStem hPSC XF Medium overnight and change 100% of the medium without Y-27632 every 24 hours in a laminar flow cabinet for cell culture. When changing media, tilt plate up and allow media to pool at the bottom of wells. Aspirate the pooled medium without touching the surface of the plate. Replace with medium warmed to room temperature by pipetting 2 ml down the side of the wells. Cell Passaging • 1. Expand cell colonies until they have reached 70-80% confluence in high-density areas of the wells. High-density accumulation can occur along the edges of the well as well as the middle. Cells permitted to reach high density will lose their potential for differentiation after multiple passages. • 2. Prior to cell passage, warm cell wash buffer and NutriStem hPSC XF Medium to room temperature. Conduct cell passage in a laminar flow cabinet. • 3. Aspirate NutriStem hPSC XF Medium from wells with vacuum aspirator and wash with PBS without calcium or magnesium. Remove PBS and add 1 ml of ReLeSR reagent to side of well. Agitate plate to allow ReLeSR reagent to spread evenly on the surface. • 4. Aspirate ReLeSR reagent with vacuum aspirator after 30 seconds, which will leave behind a thin film of liquid. Incubate plate at 37° C. for 5-8 minutes undisturbed. • 5. Add fresh NutriStem hPSC XF Medium to wells and gently remove the cell colonies from the plate. Check that most cells have been dislodged from the plate surface with a light microscope. If not, rewash with more medium as needed. • 6. Transfer cell colony suspension in NutriStem hPSC XF Medium to Matrigel coated culture plates for further expansion (see Cell plating and culture above). Generation of iPSC Derived MSCs Mesoderm Induction of iPSC • 1. When iPSCs have reached 70-80% confluence, they will need to be passaged as single cells rather than colonies prior to mesoderm induction (day 0). • 2. Prepare for passage by warming cell wash buffer and NutriStem hPSC XF medium to room temperature and add Y-27632 Rho kinase inhibitor to medium at a final concentration of 10 μM. […]

Take `NC(=O)c1ccc(-c2nc(-c3ccc4c(c3)OCO4)c(-c3ccccn3)[nH]2)cc1` [SB, SB431542]: the FOXF1 expression result is given as “loss” and the IRX3 expression entry is “increased expression”.
